Key:
[1] = Aqueous solubility of compound by HPLC-PDA method; format: physicochemical; conditions: buffer; read-out: solubility
[2] = Apparent permeability across apical to basolateral side in human Caco-2 cells incubated for 21 days; format: ADME, cell-based; conditions: time 21 day
[3] = Apparent permeability across basolateral to apical side in human Caco-2 cells incubated for 21 days; format: ADME, cell-based; conditions: time 21 day
[4] = Efflux ratio of apparent permeability across basolateral to apical side over apical to basolateral side in human Caco-2 cells; format: ADME, cell-based
[5] = Elimination half life in Balb/c mouse at 50 mg/kg, po measured upto 24 hrs by LC/MS/MS analysis; format: ADME, organism-based; conditions: in vivo, read-out: beta t1/2 (converted)
[6] = Elimination half life in Balb/c mouse at 5 mg/kg, iv measured upto 24 hrs by LC/MS/MS analysis; format: ADME, organism-based; conditions: in vivo, read-out: beta t1/2 (converted)
[7] = Tmax in Balb/c mouse at 50 mg/kg, po measured upto 24 hrs by LC/MS/MS analysis; format: ADME, organism-based; conditions: in vivo
[8] = Cmax in Balb/c mouse at 50 mg/kg, po measured upto 24 hrs by LC/MS/MS analysis; format: ADME, organism-based; set-up: time < 24 hrs, dose 50 mg/kg, route po; conditions: in vivo
[9] = Cmax in Balb/c mouse at 5 mg/kg, iv measured upto 24 hrs by LC/MS/MS analysis; format: ADME, organism-based; set-up: dose 5 mg/kg, time < 24 hrs, route iv; conditions: in vivo
[10] = AUC (0 to t) in Balb/c mouse at 50 mg/kg, po measured upto 24 hrs by LC/MS/MS analysis; format: ADME, organism-based; set-up: dose 50 mg/kg, time < 24 hrs, route po; conditions: Balb/c, in vivo
[11] = AUC (0 to t) in Balb/c mouse at 5 mg/kg, iv measured upto 24 hrs by LC/MS/MS analysis; format: ADME, organism-based; set-up: time < 24 hrs, dose 5 mg/kg, route iv; conditions: Balb/c, in vivo
[12] = Oral bioavailability in Balb/c mouse at 50 mg/kg measured upto 24 hrs by LC/MS/MS analysis; format: ADME, organism-based; conditions: Balb/c, in vivo
[13] = Chemical stability of the compound under 4500 +/- 500 lx light condition by measuring compound purity incubated for 10 days by HPLC-PDA method relative to initial purity; format: physicochemical; conditions: time 10 day; for Stability: 240 h
[14] = Chemical stability of the compound under 60 degree C high temperature by measuring compound purity incubated for 10 days by HPLC-PDA method analysis relative to initial purity; format: physicochemical; conditions: time 10 day; for Stability: 240 h
[15] = Chemical stability of the compound under 92.5% humidity by measuring compound purity incubated for 10 days by HPLC-PDA method relative to initial purity; format: physicochemical; conditions: time 10 day; for Stability: 240 h
[16] = Elimination half life in Sprague-Dawley rat at 50 mg/kg, po measured upto 24 hrs by LC/MS/MS analysis; format: ADME, organism-based; conditions: in vivo, read-out: beta t1/2 (converted)
[17] = Elimination half life in Sprague-Dawley rat at 5 mg/kg, iv measured upto 24 hrs by LC/MS/MS analysis; format: ADME, organism-based; conditions: in vivo, read-out: beta t1/2 (converted)
[18] = Tmax in Sprague-Dawley rat at 50 mg/kg, po measured upto 24 hrs by LC/MS/MS analysis; format: ADME, organism-based; conditions: in vivo
[19] = Cmax in Sprague-Dawley rat at 50 mg/kg, po measured upto 24 hrs by LC/MS/MS analysis; format: ADME, organism-based; set-up: time < 24 hrs, dose 50 mg/kg, route po; conditions: in vivo
[20] = Cmax in Sprague-Dawley rat at 5 mg/kg, iv measured upto 24 hrs by LC/MS/MS analysis; format: ADME, organism-based; set-up: time < 24 hrs, dose 5 mg/kg, route iv; conditions: in vivo
[21] = AUC (0 to t) in Sprague-Dawley rat at 50 mg/kg, po measured upto 24 hrs by LC/MS/MS analysis; format: ADME, organism-based; set-up: dose 50 mg/kg, time < 24 hrs, route po; conditions: in vivo
[22] = AUC (0 to t) in Sprague-Dawley rat at 5 mg/kg, iv measured upto 24 hrs by LC/MS/MS analysis; format: ADME, organism-based; set-up: time < 24 hrs, dose 5 mg/kg, route iv; conditions: in vivo
[23] = AUC (0 to infinity) in Sprague-Dawley rat at 50 mg/kg, po measured upto 24 hrs by LC/MS/MS analysis; format: ADME, organism-based; set-up: time < 24 hrs, dose 50 mg/kg, route po; conditions: in vivo
[24] = AUC (0 to infinity) in Sprague-Dawley rat at 5 mg/kg, iv measured upto 24 hrs by LC/MS/MS analysis; format: ADME, organism-based; set-up: time < 24 hrs, dose 5 mg/kg, route iv; conditions: in vivo
[25] = MRT (0 to infinity) in Sprague-Dawley rat at 50 mg/kg, po measured upto 24 hrs by LC/MS/MS analysis; format: ADME, organism-based; conditions: in vivo
[26] = MRT (0 to infinity) in Sprague-Dawley rat at 5 mg/kg, iv measured upto 24 hrs by LC/MS/MS analysis; format: ADME, organism-based; conditions: in vivo
[27] = Clearance in Sprague-Dawley rat at 5 mg/kg, iv measured upto 24 hrs by LC/MS/MS analysis; format: ADME, organism-based; conditions: in vivo
[28] = Oral bioavailability in Sprague-Dawley rat at 50 mg/kg measured upto 24 hrs by LC/MS/MS analysis; format: ADME, organism-based; conditions: in vivo
[29] = Lipophilicity, log P of the compound in octanol/water incubated for 72 hrs under shaking condition by shake flask based HPLC-PDA method; format: physicochemical
[30] = Lipophilicity, log D of the compound in octanol/water at pH 2.0 incubated for 72 hrs under shaking condition by shake flask based HPLC-PDA method; format: physicochemical; conditions: pH 2
[31] = Lipophilicity, log D of the compound in octanol/water at pH 4.0 incubated for 72 hrs under shaking condition by shake flask based HPLC-PDA method; format: physicochemical; conditions: pH 4
[32] = Lipophilicity, log D of the compound in octanol/water at pH 6.8 incubated for 72 hrs under shaking condition by shake flask based HPLC-PDA method; format: physicochemical; conditions: pH 6.8
[33] = Lipophilicity, log D of the compound in octanol/water at pH 7.6 incubated for 72 hrs under shaking condition by shake flask based HPLC-PDA method; format: physicochemical; conditions: pH 7.6
[34] = system: Mycobacterium tuberculosis; test: Antibacterial activity against Mycobacterium tuberculosis H37Rv by microplate alamar blue assay; format: functional
[35] = system: Mycobacterium tuberculosis; test: Antibacterial activity against Mycobacterium tuberculosis H37Rv BALB/c mouse model assessed as reduction in CFU in lungs at 12.5 mg/kg via oral gavage for 30 days (reference value: 5.35 +/-0.17); format: functional; conditions: time 30 day
[36] = system: Mycobacterium tuberculosis; test: Antibacterial activity against Mycobacterium tuberculosis H37Rv BALB/c mouse model assessed as reduction in CFU in lungs at 25 mg/kg via oral gavage for 30 days (reference value: 5.35 +/-0.17); format: functional; conditions: time 30 day
[37] = system: Mycobacterium tuberculosis; test: Antibacterial activity against Mycobacterium tuberculosis H37Rv BALB/c mouse model assessed as reduction in delta CFU in lungs at 12.5 mg/kg via oral gavage for 30 days; format: functional; conditions: time 30 day
[38] = system: Mycobacterium tuberculosis; test: Antibacterial activity against Mycobacterium tuberculosis H37Rv BALB/c mouse model assessed as reduction in delta CFU in lungs at 25 mg/kg via oral gavage for 30 days; format: functional; conditions: time 30 day

## O=C(O)CC(O)(CC(=O)O)C(=O)O.O=c1cc(N2CCN(CC3CCCCC3)CC2)sc2c([N+](=O)[O-])cc(C(F)(F)F)cc12
[1]
  solubility: 143 µg/mL
[2]
  Papp A→B: 2.52 ×10⁻⁶ cm/s
[3]
  Papp B→A: 0.33 ×10⁻⁶ cm/s
[4]
  efflux ratio: 0.13
[5]
  half-life: 6.19 h
[6]
  half-life: 6.67 h
[7]
  Tmax: 0.5 h
[8]
  Cmax: 536 ng/mL
[9]
  Cmax: 3780 ng/mL
[10]
  AUC(0-t) at 24 h: 4440 ng·h/mL
[11]
  AUC(0-t) at 24 h: 2360 ng·h/mL
[12]
  bioavailability: 19.4%
[13]
  Stability: 91.3%
[14]
  Stability: 99.6%
[15]
  Stability: 99.4%

## O=C(O)/C=C\C(=O)O.O=c1cc(N2CCN(CC3CCCCC3)CC2)sc2c([N+](=O)[O-])cc(C(F)(F)F)cc12
[1]
  solubility: 114 µg/mL
[2]
  Papp A→B: 3.1 ×10⁻⁶ cm/s
[3]
  Papp B→A: 0.25 ×10⁻⁶ cm/s
[4]
  efflux ratio: 0.1
[5]
  half-life: 5.99 h
[6]
  half-life: 6.61 h
[7]
  Tmax: 1.5 h
[8]
  Cmax: 776 ng/mL
[9]
  Cmax: 3090 ng/mL
[10]
  AUC(0-t) at 24 h: 7110 ng·h/mL
[11]
  AUC(0-t) at 24 h: 2570 ng·h/mL
[12]
  bioavailability: 28%
[16]
  half-life: 4.56 h
[17]
  half-life: 6.43 h
[18]
  Tmax: 3.33 h
[19]
  Cmax: 282 ng/mL
[20]
  Cmax: 3880 ng/mL
[21]
  AUC(0-t) at 24 h: 2130 ng·h/mL
[22]
  AUC(0-t) at 24 h: 1710 ng·h/mL
[23]
  AUC(0-inf): 2180 ng·h/mL
[24]
  AUC(0-inf): 1740 ng·h/mL
[25]
  MRT inf: 5.91 h
[26]
  MRT inf: 2.46 h
[27]
  clearance: 52.4 mL/min/kg
[28]
  bioavailability: 12.5%
[13]; read-out: Stability
  remaining at 240 h: 100%
[14]; read-out: Stability
  remaining at 240 h: 100%
[15]; read-out: Stability
  remaining at 240 h: 100%
[29]
  logP at 72 h: 2.6
[30]
  logD at 72 h: 1.31
[31]
  logD at 72 h: 3.6
[32]
  logD at 72 h: > 4.24
[33]
  logD at 72 h: > 4.24
[34]
  MIC: < 0.016 µg/mL
[35]
  Activity: 4.6 log10CFU
[36]
  Activity: 2.12 log10CFU
[37]
  Activity: 0.75 log10CFU
[38]
  Activity: 3.23 log10CFU

## O=C(O)C[C@H](O)C(=O)O.O=c1cc(N2CCN(CC3CCCCC3)CC2)sc2c([N+](=O)[O-])cc(C(F)(F)F)cc12
[1]
  solubility: 158 µg/mL
[2]
  Papp A→B: 7.78 ×10⁻⁶ cm/s
[3]
  Papp B→A: 0.28 ×10⁻⁶ cm/s
[5]
  half-life: 6 h
[6]
  half-life: 5.9 h
[7]
  Tmax: 1 h
[8]
  Cmax: 979 ng/mL
[9]
  Cmax: 3950 ng/mL
[10]
  AUC(0-t) at 24 h: 7280 ng·h/mL
[11]
  AUC(0-t) at 24 h: 2730 ng·h/mL
[12]
  bioavailability: 27.7%
[13]
  Stability: 90.6%
[14]
  Stability: 98.2%
[15]
  Stability: 98.3%

## O=C(O)CC(O)(CC(=O)O)C(=O)O.O=C(O)CC(O)(CC(=O)O)C(=O)O.O=C(O)CC(O)(CC(=O)O)C(=O)O.O=c1cc(N2CCN(CC3CCCCC3)CC2)sc2c([N+](=O)[O-])cc(C(F)(F)F)cc12.O=c1cc(N2CCN(CC3CCCCC3)CC2)sc2c([N+](=O)[O-])cc(C(F)(F)F)cc12
[1]
  solubility: 128 µg/mL
[2]
  Papp A→B: 4.08 ×10⁻⁶ cm/s
[3]
  Papp B→A: 0.26 ×10⁻⁶ cm/s
[4]
  efflux ratio: 0.1
